Results on three compounds are retold here after ChEMBL document CHEMBL4004867, “Novel antioxidants' synthesis and their anti-oxidative activity through activating Nrf2 signaling pathway” (2017).

The source made the active and inactive calls. The rule behind the calls is not given here.

In assay [1] the test system is PC-12. Put plainly: Cytoprotective activity against H2O2-induced oxidative damage in rat PC12 cells assessed as viable cells at 10 uM preincubated for 24 hrs followed by H2O2 addition measured after 24 hrs by annexin V-FITC/propidium iodide staining-based flow cytometric method (reference value: 85.2%). It counts as functional. As to conditions: read-out: Activity. Background: A flow cytometer gives signals particle by particle.

Assay [2] deals with PC-12. Description: Cytoprotective activity against H2O2-induced oxidative damage in rat PC12 cells assessed as late apoptotic cells at 10 uM preincubated for 24 hrs followed by annexin V-FITC/propidium iodide staining-based flow cytometric method (reference value: 10.7%). It counts as functional.
The subject of assay [3] is PC-12. Description: Cytoprotective activity against H2O2-induced oxidative damage in rat PC12 cells assessed as necrotic cells at 10 uM preincubated for 24 hrs followed by H2O2 addition measured after 24 hrs by annexin V-FITC/propidium iodide staining-based flow cytometric method (reference value: 3.47%). It counts as functional.
The subject of assay [4] is PC-12. Put plainly: Cytoprotective activity against H2O2-induced oxidative damage in rat PC12 cells assessed as early apoptotic cells at 10 uM preincubated for 24 hrs followed by H2O2 addition measured after 24 hrs by annexin V-FITC/propidium iodide staining-based flow cytometric method (reference value: 0.558%). Format: functional.
In assay [5] the test system is PC-12. Put plainly: Cytoprotective activity against H2O2-induced oxidative damage in rat PC12 cells assessed as necrotic cells at 2.5 uM preincubated for 24 hrs followed by H2O2 addition measured after 24 hrs by annexin V-FITC/propidium iodide staining-based flow cytometric method (reference value: 3.47%). It counts as functional.
For assay [6], the system named is PC-12. Description: Cytoprotective activity against H2O2-induced oxidative damage in rat PC12 cells assessed as increase in cell viability preincubated for 24 hrs followed by H2O2 addition measured after 24 hrs by MTT assay. Format: functional, cell-based. (In general: Tetrazolium dyes change colour on reduction, which living cells bring about.)
In assay [7] the target is T1, Nuclear factor erythroid 2-related factor 2 (Rattus norvegicus) (UniProt O54968).
T1 sequence (whole entry): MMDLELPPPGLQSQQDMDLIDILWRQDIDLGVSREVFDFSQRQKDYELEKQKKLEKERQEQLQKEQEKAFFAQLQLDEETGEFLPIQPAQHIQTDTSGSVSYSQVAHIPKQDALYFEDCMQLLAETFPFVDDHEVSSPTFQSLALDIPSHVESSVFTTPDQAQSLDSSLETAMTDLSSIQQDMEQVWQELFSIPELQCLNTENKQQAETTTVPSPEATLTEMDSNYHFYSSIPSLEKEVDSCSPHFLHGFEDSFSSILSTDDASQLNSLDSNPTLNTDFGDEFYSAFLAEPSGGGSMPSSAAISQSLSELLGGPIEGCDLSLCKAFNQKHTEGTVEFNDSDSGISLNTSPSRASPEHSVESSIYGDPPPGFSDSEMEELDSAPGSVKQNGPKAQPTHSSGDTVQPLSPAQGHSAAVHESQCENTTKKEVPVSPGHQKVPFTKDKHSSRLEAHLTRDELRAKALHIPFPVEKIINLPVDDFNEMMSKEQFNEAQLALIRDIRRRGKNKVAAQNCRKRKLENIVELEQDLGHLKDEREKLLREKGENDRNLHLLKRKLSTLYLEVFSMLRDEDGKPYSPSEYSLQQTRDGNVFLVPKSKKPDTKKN
Put plainly: Induction of Nrf2 activity in rat PC12 cells assessed as upregulation of GCLC mRNA levels at 2.5 to 10 uM after 24 hrs by RT-PCR method. It counts as cell-based.

The test system of assay [8] is PC-12. Description: Cytoprotective activity against H2O2-induced oxidative damage in rat PC12 cells assessed as late apoptotic cells at 5 uM preincubated for 24 hrs followed by H2O2 addition measured after 24 hrs by annexin V-FITC/propidium iodide staining-based flow cytometric method (reference value: 10.7%). Format: functional.
Assay [9] has as its target T1, Nuclear factor erythroid 2-related factor 2 (Rattus norvegicus). Description: Induction of Nrf2 nuclear translocation in rat PC12 cells at 10 uM after 6 hrs by DAPI staining-based immunofluorescence method. It counts as cell-based.
For assay [10], the system named is PC-12. Description: Cytoprotective activity against H2O2-induced oxidative damage in rat PC12 cells assessed as necrotic cells at 5 uM preincubated for 24 hrs followed by H2O2 addition measured after 24 hrs by annexin V-FITC/propidium iodide staining-based flow cytometric method (reference value: 3.47%). It counts as functional.
Assay [11] deals with PC-12. Description: Cytoprotective activity against H2O2-induced oxidative damage in rat PC12 cells preincubated for 24 hrs followed by H2O2 addition measured after 24 hrs by annexin V-FITC/propidium iodide staining-based flow cytometric method. Format: functional, cell-based.
Assay [12] has as its target T1, Nuclear factor erythroid 2-related factor 2 (Rattus norvegicus). Put plainly: Induction of Nrf2 activity in rat PC12 cells assessed as upregulation of GCLC levels after 24 hrs by Western blot method. Format: cell-based. A general note: In western blotting, separated proteins are transferred to a membrane and probed.
The test system of assay [13] is PC-12. Put plainly: Cytoprotective activity against H2O2-induced oxidative damage in rat PC12 cells assessed as early apoptotic cells at 5 uM preincubated for 24 hrs followed by H2O2 addition measured after 24 hrs by annexin V-FITC/propidium iodide staining-based flow cytometric method (reference value: 0.558%). It counts as functional.
Assay [14] has as its system PC-12. Put plainly: Cytoprotective activity against H2O2-induced oxidative damage in rat PC12 cells assessed as early apoptotic cells at 2.5 uM preincubated for 24 hrs followed by H2O2 addition measured after 24 hrs by annexin V-FITC/propidium iodide staining-based flow cytometric method (reference value: 0.558%). It counts as functional.
Assay [15] has as its system PC-12. Put plainly: Cytoprotective activity against H2O2-induced oxidative damage in rat PC12 cells assessed as viable cells at 2.5 uM preincubated for 24 hrs followed by H2O2 addition measured after 24 hrs by annexin V-FITC/propidium iodide staining-based flow cytometric method (reference value: 85.2%). Format: functional. The note with it: read-out: Activity.
For assay [16], the system named is PC-12. Description: Cytoprotective activity against H2O2-induced oxidative damage in rat PC12 cells assessed as late apoptotic cells at 2.5 uM preincubated for 24 hrs followed by H2O2 addition measured after 24 hrs by annexin V-FITC/propidium iodide staining-based flow cytometric method (reference value: 10.7%). It counts as functional.
In assay [17] the test system is PC-12. Put plainly: Cytoprotective activity against H2O2-induced oxidative damage in rat PC12 cells assessed as increase in cell viability at 10 uM preincubated for 24 hrs followed by H2O2 addition measured after 24 hrs in presence of GCLC inhibitor BSO by MTT assay. It counts as functional, cell-based.
Assay [18] can be described thus: Antioxidant activity assessed as DPPH radical scavenging activity relative to edaravone. It counts as functional.
Assay [19] can be described thus: Antioxidant activity assessed as DPPH radical scavenging activity relative to tBHQ. Format: functional.
The subject of assay [20] is PC-12. Description: Cytoprotective activity against H2O2-induced oxidative damage in rat PC12 cells assessed as viable cells at 5 uM preincubated for 24 hrs followed by H2O2 addition measured after 24 hrs by annexin V-FITC/propidium iodide staining-based flow cytometric method (reference value: 85.2%). It counts as functional. The note with it: read-out: Activity.

In the case of `CC(C)(C)c1cc(O)ccc1O` [E319], in the assay with PC-12 [1], the viability at 10 µM came to 97.1%. The results for the Activity with PC-12 [2], in the assay with PC-12 [3] and in the assay with PC-12 [4] were 0.882%, 0.882% and 1.1%, respectively.
As for `CCC(=O)N1NC(c2cc(OC)c(OC)c(OC)c2)C2=C1CCC2` (stereo not drawn), the Activity in the assay with PC-12 [5] is 1.69%; in the assay on PC-12 [6], “Dose-dependent effect”; with PC-12 [8] it was 2.44%; in the assay on PC-12 [10], 1.46%; with PC-12 [11], “Dose-dependent effect”; in assay [12], “Dose-dependent effect”. In addition, the Activity in the assay with PC-12 [13] was 2.64%; in the assay with PC-12 [14], 1.46%; with PC-12 [16], 2.65%; in the assay on PC-12 [2], 2.27%; with PC-12 [3], 2.96%; in the assay on PC-12 [4] it was 1.64%. In addition, the outcome in assay [7] and in assay [9] was Active. For the same compound, the viability at 10 µM in the assay with PC-12 [1] came out at 93.1%. Further, in the assay with PC-12 [15], the viability at 2.5 µM was 94.2%. Besides, the result in the assay on PC-12 [17] was inactive. The fold change (FC) in [18] and in assay [19] was 0.5 each time. For the same compound, the viability at 5 µM in the assay with PC-12 [20] was found to be 93.5%.
In the case of `CC1=NN(c2ccccc2)C(=O)C1` [EDARAVONE], in the assay with PC-12 [1], the viability at 10 µM stood at 95.1%. Also, the Activity in the assay on PC-12 [2] was 1.92%; in the assay with PC-12 [3] it was 1.85%; in the assay with PC-12 [4], 1.17%.
